Reference: patent publication EP4417202A1, “ANTI-CANCER ACTION OF BAG1-SELECTIVE IMIDAZOPYRIDINE COMPOUNDS IN STEROID HORMONE RECEPTOR-POSITIVE BREAST AND PROSTATE CANCER” (Karlsruher Institut für Technologie, priority 2023, dated 2024)

How the values were obtained:
BAG1M = biological target: T1, BAG1M (Homo sapiens, UniProt Q99933); assay: Cellular thermal shift assay (Tagg-CETSA) in MCF-7 cells; type: binding; details: 1 µM, 1 h
T1 construct: endogenous in cells; host or cells: MCF-7
Protocol: (§1) To determine the aggregation temperature (Tagg-CETSA), MCF-7 cells were harvested and resuspended at a concentration of 2×10^6 cells/ml. X15695 (1 µM) or the same volume of DMSO were added to the cell suspension and incubated for 1 h at 37°C. Cells were washed and resuspend with phosphate-buffered saline (PBS) to a final concentration of 3×10^7 cells/ml. The cell suspension was evenly distributed into different tubes and treated with a gradient of temperature ranging from 37 to 62°C for 3 min. Cells were incubated 3 min at room temperature to ensure a uniform temperature between different tubes and then snap frozen with liquid nitrogen. Cells were lysed by freeze/thaw cycles with liquid nitrogen and centrifuged at 20,000 g for 20 min. Stable BAG proteins present in the supernatant were quantified by Western blotting using an anti-BAG1, 2, 3, and 5 antibodies and β-actin antibody for loading control.

BAG1L = biological target: T2, BAG1L (Homo sapiens, UniProt Q99933); assay: as above; type: binding; details: 1 µM, 1 h
T2 construct: endogenous in cells; host or cells: MCF-7
T2 sequence (Q99933 whole entry): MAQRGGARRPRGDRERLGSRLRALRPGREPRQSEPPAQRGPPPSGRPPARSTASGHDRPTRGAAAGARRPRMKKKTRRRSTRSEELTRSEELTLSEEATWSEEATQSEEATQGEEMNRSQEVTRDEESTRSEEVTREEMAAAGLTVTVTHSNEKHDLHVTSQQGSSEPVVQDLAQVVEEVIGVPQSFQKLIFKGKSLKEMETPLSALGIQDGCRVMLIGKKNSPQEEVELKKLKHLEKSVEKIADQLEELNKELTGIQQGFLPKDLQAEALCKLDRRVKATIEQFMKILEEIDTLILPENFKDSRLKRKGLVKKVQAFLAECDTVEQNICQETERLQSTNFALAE
Protocol: as §1

BAG1 = biological target: T3, BAG1 (Homo sapiens, UniProt Q99933); assay: as above; type: binding; details: 1 µM, 1 h
T3 construct: endogenous in cells; host or cells: MCF-7
T3 sequence (Q99933 116-345): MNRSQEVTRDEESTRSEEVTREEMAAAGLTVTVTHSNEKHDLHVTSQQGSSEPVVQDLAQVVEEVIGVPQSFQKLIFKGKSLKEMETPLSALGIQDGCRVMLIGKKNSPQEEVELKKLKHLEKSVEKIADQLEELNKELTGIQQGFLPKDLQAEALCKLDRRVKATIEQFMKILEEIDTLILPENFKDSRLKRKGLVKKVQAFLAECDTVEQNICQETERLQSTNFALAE
Protocol: as §1

p53 target genes = assay: Quantitative RT-PCR of p53 target genes in MCF-7 and T47D cells; type: cell-based; details: 1 µM, absence and presence of E2, 16 h
Protocol: MCF-7, T47D and LNCaP cells (5×10^4 each) were seeded in 6-well plates and cultured with hormone-depleted medium for 3 days. Subsequently, the MCF-7 and T47D cells were treated with 10 nM 17-β-estradiol (E2) or dihydrotestosterone (DHT) for the LNCaP cells, 1 µM) X15695 (for the MCF-7 and T47D cells) or 5 µM) for LNCaP cells and X15695 together with E2 or DHT. A 1 h pre-treatment with X15695 was performed prior to treatment with E2 or DHT for 16 h. RNA was extracted using innuPREP RNA mini Kit 2.0 (Analytic Jena, Berlin, Germany). 1 µg RNA per sample was used as input material for the RNA sample preparations. Sequencing libraries were generated using NEBNext® UltraTM RNA Library Prep Kit for Illumina® (NEB, USA) following the manufacturer's recommendations and index codes were added to attribute sequences to each sample. The clustering of the index-coded samples was performed on a cBot Cluster Generation System using PE Cluster Kit cBot-HS (Illumina) according to the manufacturer's instructions. After cluster generation, the library preparations were sequenced on an Illumina platform and paired-end reads were generated. Library preparation and sequencing were carried out by Novogene Europe, Cambridge, UK. […] Select target genes were analyzed by RT-PCR experiments with RNA from the samples used for the RNA-seq analysis. […]

T1 sequence (Q99933 72-345): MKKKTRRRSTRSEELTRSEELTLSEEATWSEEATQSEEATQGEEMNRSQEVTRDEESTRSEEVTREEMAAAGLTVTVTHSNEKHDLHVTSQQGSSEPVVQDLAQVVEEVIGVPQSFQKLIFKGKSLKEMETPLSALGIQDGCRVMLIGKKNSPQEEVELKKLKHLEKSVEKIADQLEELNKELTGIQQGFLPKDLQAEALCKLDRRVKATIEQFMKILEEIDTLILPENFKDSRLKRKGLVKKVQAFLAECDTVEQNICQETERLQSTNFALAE

## Fc1ccc(-c2cn3cc(C(F)(F)F)cc(Cl)c3n2)cc1 [Compound X15695, 8-Chloro-2-(4-fluorophenyl)-6-(trifluoromethyl)imidazo[1,2-a]pyridine]
BAG1M
  increase of aggregation temperature (Tagg) over vehicle: 1-2 °C
BAG1L
  increase of aggregation temperature (Tagg) over vehicle: 1-2 °C
BAG1
  increase of aggregation temperature (Tagg) over vehicle: 3 °C
p53 target genes
  expression of p53 target genes: upregulation of expression of p53 target genes
